Assay results reported in the supplement of paper PMC10307832.

Key:
Experiment in all cases: relative viability (nuclei count vs DMSO), 5 days (fraction); higher = more cells survive
[1] = compound: COC1=CC(c2cc3ccccc3[nH]2)=N/C1=C\c1[nH]c(C)cc1C [Obatoclax] + CS(=O)(=O)CCNCc1ccc(-c2ccc3ncnc(Nc4ccc(OCc5cccc(F)c5)c(Cl)c4)c3c2)o1 [Lapatinib] (partner 2 µM)
How it was run: (§1)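 Lung cancer cell lines in 1536-well plates got either a single drug or a fixed anchor-drug dose together with five library-drug doses (not always all listed) in √10 steps, by pin tool, on the day after seeding. Nuclei were counted after 5 days, and relative viability is the treated-to-vehicle ratio of nuclei counts. Values are medians of duplicate plates.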

[2] = compound: CC1=CC(=NN1)NC2=CC(=NC(=N2)/C=C/C3=CC=CC=C3)N4CCN(CC4)C + Nc1ncn([C@H]2C[C@H](O)[C@@H](CO)O2)c(=O)n1 [Decitabine] (partner 2 µM)
How it was run: as §1

[3] = compound: CC1=CC(=NN1)NC2=CC(=NC(=N2)/C=C/C3=CC=CC=C3)N4CCN(CC4)C + Cc1nc(Nc2ncc(C(=O)Nc3c(C)cccc3Cl)s2)cc(N2CCN(CCO)CC2)n1 [Dasatinib] (partner 0.075 µM)
How it was run: as §1

[4] = compound: CC(C)C[C@H](NC(=O)[C@H](Cc1ccccc1)NC(=O)c1cnccn1)B(O)O [Bortezomib] + COc1cccc2cc(-c3nc([C@H]4CC[C@H](C(=O)O)CC4)n4ncnc(N)c34)[nH]c12 [OSI-027] (partner 0.5 µM)
How it was run: as §1

Cell Line	relative viability ([1]; first compound 0.01 µM)	relative viability ([1]; first compound 0.03162 µM)	relative viability ([1]; first compound 0.1 µM)	relative viability ([1]; first compound 0.3162 µM)	relative viability ([1]; first compound 1 µM)	relative viability ([2]; first compound 0.08 µM)	relative viability ([2]; first compound 0.253 µM)	relative viability ([2]; first compound 0.8 µM)	relative viability ([2]; first compound 2.53 µM)	relative viability ([2]; first compound 8 µM)	relative viability ([3]; first compound 0.08 µM)	relative viability ([3]; first compound 0.253 µM)	relative viability ([3]; first compound 0.8 µM)	relative viability ([3]; first compound 2.53 µM)	relative viability ([3]; first compound 8 µM)	relative viability ([4]; first compound 0.0002 µM)	relative viability ([4]; first compound 0.000632 µM)	relative viability ([4]; first compound 0.002 µM)	relative viability ([4]; first compound 0.006325 µM)	relative viability ([4]; first compound 0.02 µM)
LOU-NH91	0.826	0.73	0.669	0.603	0.59	0.793	0.856	0.807	0.809	0.473	0.576	0.614	0.61	0.448	0.302	0.688	0.68	0.581	0.298	0.251
SK-MES-1	0.457	0.458	0.509	0.519	0.519	0.402	0.379	0.331	0.187	0.11	0.479	0.322	0.493	0.139	0.0976	0.64	0.591	0.47	0.14	0.128
LCLC-103H	–	–	–	–	–	0.746	0.774	0.72	0.713	0.64	0.481	0.483	0.492	0.459	0.237	0.482	0.511	0.492	0.201	0.14
NCI-H1915	1.03	0.879	0.852	0.978	0.925	0.241	0.273	0.261	0.238	0.168	0.347	0.27	0.28	0.16	0.0845	0.582	0.507	0.613	0.186	0.0754
IA-LM	0.631	0.872	0.454	0.135	0.114	–	–	–	–	–	–	–	–	–	–	–	–	–	–	–
NCI-H1734	1.04	0.994	–	0.661	0.706	0.515	0.531	0.544	0.362	0.16	0.4	0.454	0.464	0.257	0.111	0.635	0.452	0.541	0.164	0.133
NCI-H2170	0.281	0.247	0.304	0.253	0.306	0.452	0.51	0.467	0.373	0.251	0.573	0.563	0.471	0.203	0.112	0.688	0.463	0.69	0.566	0.182
Calu-6	1.03	1.09	1.04	0.842	0.244	–	–	–	–	–	–	–	–	–	–	–	–	–	–	–
HCC-15	0.854	0.801	0.747	0.723	0.581	0.592	0.654	0.655	0.108	0.0983	0.634	0.672	0.479	0.0991	0.0639	0.677	0.707	0.667	0.0893	0.0735
SK-LU-1	0.75	0.87	0.61	0.637	0.621	0.594	0.661	0.618	0.396	0.183	0.174	0.171	0.156	0.108	0.0621	0.336	0.286	0.319	0.125	0.122
NCI-H2023	1.08	0.755	0.761	0.622	0.122	0.22	0.221	0.231	0.0739	0.0699	0.575	0.588	0.555	0.0936	0.0621	0.464	0.373	0.43	0.0814	0.0616
HCC-366	1.02	1.05	0.921	0.636	0.379	0.35	0.368	0.318	0.0513	0.0463	0.708	0.645	0.544	0.0369	0.0193	0.821	0.539	1.1	0.742	0.047
NCI-H2228	1.04	0.826	0.986	0.627	0.335	–	–	–	–	–	0.448	0.539	0.369	0.0563	0.0381	0.51	0.674	0.294	0.0867	0.115
NCI-H1648	–	–	–	–	–	0.417	0.552	0.606	0.294	0.463	–	–	–	–	–	0.256	0.293	0.251	0.256	0.229
NCI-H1623	–	–	–	–	–	–	–	–	–	–	0.469	0.559	0.614	0.494	0.543	0.434	0.473	0.468	0.36	0.295
NCI-H1299	0.911	0.977	0.932	0.881	0.308	–	–	–	–	–	–	–	–	–	–	–	–	–	–	–
NCI-H522	–	–	–	–	–	0.593	0.685	0.69	0.601	0.391	0.94	0.795	0.662	0.482	0.388	0.632	0.556	0.724	0.439	0.465
NCI-H2342	–	–	–	–	–	0.753	0.774	0.662	0.703	0.641	0.314	0.298	0.322	0.249	0.218	0.656	0.524	0.616	0.634	0.587
SW 900	–	–	–	–	–	0.426	0.377	0.413	0.277	0.139	0.644	0.585	0.413	0.418	0.0713	0.527	0.414	0.143	0.0928	0.108
NCI-H1703	1	1.46	1.1	0.437	0.405	–	–	–	–	–	–	–	–	–	–	–	–	–	–	–
ChaGo-K-1	–	–	–	–	–	0.509	0.587	0.465	0.383	0.21	0.58	0.598	0.476	0.151	0.132	0.576	0.539	0.623	0.48	0.149
